Measured values: patent US20240150321A1, “PYRAZOLYLSULFONAMIDE COMPOUNDS AND THEIR USE IN THERAPY” (HOTSPOT THERAPEUTICS, INC., priority 2022, published 2024)
Where two headings read alike, the source gives them in different places.

Experiments:
Avi-tagged FL MALT-1 = Avi-tagged FL MALT-1 (Homo sapiens (Human), UniProt Q9UDY8); assay: MALT-1 Fluorogenic Peptide Cleavage Assay (MALT1 inhibition assay); type: biochemical; details: Ac-LRSR-AMC peptide substrate, 30 min pre-incubation, 90 min reaction at room temperature
How it was run: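 Full-length Avi-tagged human MALT-1 (40 nM working stock) pre-incubated 30 min at RT with compound in 25 mM HEPES pH 6.89, 660 mM sodium citrate, 1 mM TCEP, […], 0.05% CHAPS, 2% DMSO. Ac-LRSR-AMC added at Km (50 μM working stock) or 10×Km (280 μM working stock); 90 min at RT, AMC fluorescence (ex 342/em 441 nm), IC50 from % inhibition curves.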

[1] = tested on: NF-kB reporter in Jurkat cells; assay: NF-kB reporter assay in Jurkat cells stimulated with aCD3/aCD28/PMA; type: cell-based; details: Jurkat cells, 1 hr compound pre-incubation, aCD3/aCD28/PMA stimulation 4 hr, One-Glo readout, read-out: NF-kB Reporter Assay IC50
How it was run: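 Jurkat cells (25,000/well, serum-free RPMI) were pre-incubated 1 h at 37° C with serially diluted compound, then stimulated 4 h with aCD3/aCD28/PMA at final […]. NF-kB reporter activity was read by One-Glo luminescence; IC50 values reported.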

Chain of Avi-tagged FL MALT-1 (Q9UDY8 whole entry): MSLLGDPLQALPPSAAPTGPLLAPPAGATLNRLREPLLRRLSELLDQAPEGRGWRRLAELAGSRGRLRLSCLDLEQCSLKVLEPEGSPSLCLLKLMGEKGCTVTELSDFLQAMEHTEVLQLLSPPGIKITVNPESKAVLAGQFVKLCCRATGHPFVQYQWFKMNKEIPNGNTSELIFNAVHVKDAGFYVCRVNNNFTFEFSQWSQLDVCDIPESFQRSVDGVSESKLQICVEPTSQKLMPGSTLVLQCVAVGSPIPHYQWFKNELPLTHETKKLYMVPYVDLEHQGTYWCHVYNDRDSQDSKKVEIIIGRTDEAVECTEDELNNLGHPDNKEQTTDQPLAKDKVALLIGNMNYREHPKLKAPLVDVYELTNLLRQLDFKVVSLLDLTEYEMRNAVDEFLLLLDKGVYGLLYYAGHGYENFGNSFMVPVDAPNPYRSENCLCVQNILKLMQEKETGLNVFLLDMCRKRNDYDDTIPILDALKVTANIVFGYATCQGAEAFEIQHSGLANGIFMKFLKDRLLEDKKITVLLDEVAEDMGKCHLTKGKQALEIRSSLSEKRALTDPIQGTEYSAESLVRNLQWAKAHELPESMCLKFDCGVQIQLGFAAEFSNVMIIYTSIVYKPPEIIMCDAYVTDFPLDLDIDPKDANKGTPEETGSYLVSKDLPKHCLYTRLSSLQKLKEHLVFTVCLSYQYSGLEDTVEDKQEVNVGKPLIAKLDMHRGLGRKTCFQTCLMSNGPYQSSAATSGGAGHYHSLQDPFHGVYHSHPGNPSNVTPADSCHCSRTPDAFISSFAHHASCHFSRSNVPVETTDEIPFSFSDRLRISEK

Row | Structure (SMILES) | IC50 (Avi-tagged FL MALT-1) [nM] | IC50 ([1]; Homo sapiens) [nM] | IC50 [1] [nM]
1 | O=S(=O)(Nc1cccc2cnn(C(F)F)c12)c1cnn(-c2cc(C(F)F)ccn2)c1 [Compound I-108, N-[1-(difluoromethyl)indazol-7-yl]-1-[4-(difluoromethyl)pyridin-2-yl]pyrazole-4-sulfonamide] | > 2500 | > 2500 | –
2 | Cn1ncc2cccc(NS(=O)(=O)c3cnn(-c4cc(C5=CCOCC5)ccn4)c3)c21 [Compound I-119, 1-(4-(3,6-Dihydro-2H-Pyran-4-yl)Pyridin-2-yl)-N-(1-Methyl-1H-Indazol-7-yl)-1H-Pyrazole-4-Sulfonamide] | > 2500 | < 400 | –
3 | COc1ccc2cnn(C)c2c1NS(=O)(=O)c1cnn(-c2cc(C3(O)CC(C)(C)C3)ccn2)c1 [Compound I-479] | > 2500 | < 400 | –
4 | CCc1ccc2cnn(C)c2c1NS(=O)(=O)c1cnn(-c2cc(C)ccn2)c1 [Compound I-34, N-(6-Ethyl-1-Methyl-1H-Indazol-7-yl)-1-(4-Methylpyridin-2-yl)-1H-Pyrazole-4-Sulfonamide] | ≤ 400 | < 400 | –
5 | C[C@@H]1CN(C)C(=O)N1c1ccnc(-n2cc(S(=O)(=O)Nc3cccc4cnn(C)c34)cn2)c1 [Compound I-348] | > 2500 | < 400 | –
6 | COc1ncc2cnn(C)c2c1NS(=O)(=O)c1cnn(-c2cc(N3CC[C@@H](C)C3)ccn2)c1 [Compound I-420] | > 2500 | < 400 | –
7 | Cn1ncc2cccc(NS(=O)(=O)c3cnn(-c4cc(N5CC(C)(C)NC5=O)ccn4)c3)c21 [Compound I-285, 1-(4-(4,4-Dimethyl-2-Oxoimidazolidin-1-yl)Pyridin-2-yl)-N-(1-Methyl-1H-Indazol-7-yl)-1H-Pyrazole-4-Sulfonamide] | > 2500 | 400 to 1000 | –
8 | COC1(c2ccnc(-n3cc(S(=O)(=O)Nc4cccc5cnn(C)c45)cn3)c2)CC(C)C1 (centres unmarked) [Compound I-362, 1-(4-(1-methoxy-3-methylcyclobutyl)pyridin-2-yl)-N-(1-methyl-1H-indazol-7-yl)-1H-pyrazole-4-sulfonamide] | > 2500 | < 400 | –
9 | CN1CC[C@@H](n2cc(S(=O)(=O)Nc3cccc4cnn(C)c34)cn2)CC1=O [Compound I-414] | > 2500 | > 2500 | –
10 | Cn1ncc2cccc(NS(=O)(=O)c3cnn(-c4cc(Cl)ccn4)c3)c21 [Compound I-86, 1-(4-Chloropyridin-2-yl)-N-(1-Methyl-1H-Indazol-7-yl)-1H-Pyrazole-4-Sulfonamide] | > 2500 | < 400 | –
11 | Cc1n[nH]c2cccc(NS(=O)(=O)c3cnn(-c4ccnc(C(F)(F)F)c4)c3)c12 [Compound I-51, N-(3-Methyl-1H-Indazol-4-yl)-1-(2-(Trifluoromethyl)Pyridin-4-yl)-1H-Pyrazole-4-Sulfonamide] | > 2500 | > 2500 | –
12 | COc1ncc2cnn(C)c2c1NS(=O)(=O)c1cnn(-c2cc(N3CCC(C)CC3)ccn2)c1 [Compound I-407] | > 2500 | < 400 | –
13 | CCc1ccc2cnn(C)c2c1NS(=O)(=O)c1cnn(-c2ccc(C(F)(F)F)cn2)c1 [Compound I-1, 3N-(6-Ethyl-1-Methyl-1H-Indazol-7-yl)-1-(5-(Trifluoromethyl)Pyridin-2-yl)-1H-Pyrazole-4-Sulfonamide] | ≤ 400 | < 400 | –
14 | CCc1ccc2cnn(C)c2c1NS(=O)(=O)c1cnn(-c2ccnc(C(F)(F)F)c2)n1 [Compound I-28, N-(6-Ethyl-1-Methyl-1H-Indazol-7-yl)-2-(2-(Trifluoromethyl) Pyridin-4-yl)-2H-1,2,3-Triazole-4-Sulfonamide] | ≤ 400 | 400 to 1000 | –
15 | COc1ccc2cnn(C)c2c1NS(=O)(=O)c1cnn(-c2cc(C3(OC)CC(C)C3)ccn2)c1 (single isomer, unassigned) [Compound I-364, N-(6-methoxy-1-methyl-1H-indazol-7-yl)-1-(4-(1-methoxy-3-methylcyclobutyl)pyridin-2-yl)-1H-pyrazole-4-sulfonamide] | 400 to 1000 | < 400 | –

Results, then the compound that gave them:

Row | IC50 (Avi-tagged FL MALT-1) [nM] | IC50 ([1]; Homo sapiens) [nM] | IC50 [1] [nM] | Structure (SMILES)
16 | > 2500 | < 400 | – | COCC(C)(C)c1ccnc(-n2cc(S(=O)(=O)Nc3cccc4cnn(C)c34)cn2)c1 [Compound I-481, 1-(4-(1-methoxy-2-methylpropan-2-yl)pyridin-2-yl)-N-(1-methyl-1H-indazol-7-yl)-1H-pyrazole-4-sulfonamide]
17 | > 2500 | < 400 | – | COc1ncc2cnn(C)c2c1NS(=O)(=O)c1cnn(-c2cc(N3CC[C@H](C)C3)ccn2)c1 [Compound I-419]
18 | 400 to 1000 | 400 to 1000 | – | CCC(O)(CC)c1ccnc(-n2cc(S(=O)(=O)Nc3c(OC)ccc4cnn(C)c34)cn2)c1 [Compound I-279, 1-[4-(3-hydroxypentan-3-yl)pyridin-2-yl]-N-(6-methoxy-1-methylindazol-7-yl)pyrazole-4-sulfonamide]
19 | ≤ 400 | < 400 | – | CCc1ccc2cnn(C)c2c1NS(=O)(=O)c1cnn(-c2cc(C3CC3)ccn2)c1 [Compound I-56, 1-(4-Cyclopropylpyridin-2-yl)-N-(6-Ethyl-1-Methyl-1H-Indazol-7-yl)-1H-Pyrazole-4-Sulfonamide]
20 | > 2500 | < 400 | – | Cn1ncc2cccc(NS(=O)(=O)c3cnn(-c4cc(C5COC5)ccn4)c3)c21 [Compound I-264, N-(1-methylindazol-7-yl)-1-[4-(oxetan-3-yl)pyridin-2-yl]pyrazole-4-sulfonamide]
21 | > 2500 | < 400 | – | Cc1ncn2cccc(NS(=O)(=O)c3cnn(-c4cc(C(F)(F)F)ccn4)c3)c12 [Compound I-95, N-(1-methylimidazo[1,5-a]pyridin-8-yl)-1-(4-(trifluoromethyl)pyridin-2-yl)-1H-pyrazole-4-sulfonamide]
22 | 1000 to 2500 | < 400 | – | CC[C@@](C)(O)c1ccnc(-n2cc(S(=O)(=O)Nc3c(OC)ccc4cnn(C)c34)cn2)c1 [Compound I-316]
23 | > 2500 | < 400 | – | Cn1ncc2cccc(NS(=O)(=O)c3cnn(-c4cc(C5CCOC5)ccn4)c3)c21 (centres unmarked) [Compound I-118, N-(1-methyl-1H-indazol-7-yl)-1-(4-(tetrahydrofuran-3-yl)pyridin-2-yl)-1H-pyrazole-4-sulfonamide]
24 | > 2500 | > 2500 | – | COCC(F)(COC)c1ccnc(-n2cc(S(=O)(=O)Nc3cccc4cnn(C)c34)cn2)c1 [Compound I-289]
25 | ≤ 400 | < 400 | – | Cc1ccc2[nH]nc(C)c2c1NS(=O)(=O)c1cnn(-c2cc(C(F)(F)F)ccn2)c1 [Compound I-67]
26 | > 2500 | – | < 400 | Cn1ncc2cccc(NS(=O)(=O)c3cnn(-c4cc(C5(F)CC(F)C5)ccn4)c3)c21 (centres unmarked) [Compound I-366, 1-(4-(1,3-difluorocyclobutyl)pyridin-2-yl)-N-(1-methyl-1H-indazol-7-yl)-1H-pyrazole-4-sulfonamide]
27 | > 2500 | > 2500 | – | Cn1cc2ccc(F)c(NS(=O)(=O)c3cnn(-c4cc(C(F)(F)F)ccn4)c3)c2n1 [Compound I-104, N-(6-fluoro-2-methyl-2H-indazol-7-yl)-1-(4-(trifluoromethyl)pyridin-2-yl)-1H-pyrazole-4-sulfonamide]
28 | ≤ 400 | 400 to 1000 | – | Cc1ccc2cnn(C)c2c1NS(=O)(=O)c1cnn(-c2ccnc(C(F)(F)F)c2)c1 [Compound I-59, N-(1,6-Dimethyl-1H-Indazol-7-yl)-1-(2-(Trifluoromethyl)Pyridin-4-yl)-1H-Pyrazole-4-Sulfonamide]
29 | ≤ 400 | < 400 | – | CC[C@@H](OC)c1ccnc(-n2cc(S(=O)(=O)Nc3c(OC)ccc4cnn(C)c34)cn2)c1 [Compound I-318, N-(6-methoxy-1-methylindazol-7-yl)-1-{4-[(1R)-1-methoxypropyl]pyridin-2-yl}pyrazole-4-sulfonamide]
30 | > 2500 | < 400 | – | COC(C)c1ccnc(-n2cc(S(=O)(=O)Nc3cccc4cnn(C)c34)cn2)c1 (centres unmarked) [Compound I-116, 1-(4-(1-methoxyethyl)pyridin-2-yl)-N-(1-methyl-1H-indazol-7-yl)-1H-pyrazole-4-sulfonamide]
31 | 1000 to 2500 | < 400 | – | COc1ccc2cnn(C)c2c1NS(=O)(=O)c1cnn(-c2cc(C3(O)CC(C)C3)ccn2)c1 (centres unmarked) [Compound I-143, 1-(4-(1-hydroxy-3-methylcyclobutyl)pyridin-2-yl)-N-(6-methoxy-1-methyl-1H-indazol-7-yl)-1H-pyrazole-4-sulfonamide]
32 | > 2500 | 1000 to 2500 | – | COC[C@@](C)(O)c1ccnc(-n2cc(S(=O)(=O)Nc3cccc4cnn(C)c34)cn2)c1 [Compound I-275]
33 | > 2500 | < 400 | – | COC1(C)CN(c2ccnc(-n3cc(S(=O)(=O)Nc4cccc5cnn(C)c45)cn3)c2)C1 [Compound I-446, 1-[4-(3-methoxy-3-methylazetidin-1-yl)pyridin-2-yl]-N-(1-methylindazol-7-yl)pyrazole-4-sulfonamide]
34 | > 2500 | < 400 | – | Cc1n[nH]c2cccc(NS(=O)(=O)c3cnn(-c4cc(C5CC5)ccn4)c3)c12 [Compound I-89, 1-(4-Cyclopropylpyridin-2-yl)-N-(3-Methyl-1H-Indazol-4-yl)-1H-Pyrazole-4-Sulfonamide]
